The results in this text go back to ChEMBL document CHEMBL1201862, “PubChem BioAssay data set” (2004).

Structures are written as SMILES. Activity calls are given as the source filed them.

Test [1] concerns the target DNA dC->dU-editing enzyme APOBEC-3G (Homo sapiens, UniProt Q9HC16). As to the kind of experiment: Dose Response confirmation of small molecule APOBEC3G DNA Deaminase Inhibitors via a fluorescence-based single-stranded DNA deaminase assay. [Related pubchem assays (depositor defined):AID493012, AID493028]. The class given is functional.
In test [2] the target is Glucose-6-phosphate 1-dehydrogenase (Homo sapiens, UniProt P11413). As to the kind of experiment: human G6PD enzyme inhibitors, dose response, selectivity assay for P. falciparum G6PD inhibitor project, biochemical, fluorescence (AID 504792). The class given is functional.
Test [3] is described as follows: THP-1 cell cytotoxicity, dose response, cytotoxicity control for Vif-APOBEC3G degradation inhibitor project, THP-1 cells (AID 1117359). The class given is functional. The following applies: Human immunodeficiency virus 1, THP-1.
Test [4] addresses T1, Bcl-2-like protein 10 (Homo sapiens, UniProt Q9HD36).
T1 sequence (Q9HD36 whole entry): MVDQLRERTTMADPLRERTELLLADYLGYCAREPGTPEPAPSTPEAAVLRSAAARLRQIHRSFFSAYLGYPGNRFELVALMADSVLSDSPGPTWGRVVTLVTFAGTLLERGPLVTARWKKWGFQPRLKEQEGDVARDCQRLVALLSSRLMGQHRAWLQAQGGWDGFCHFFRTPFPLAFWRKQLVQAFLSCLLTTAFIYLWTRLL
The test can be described thus: displacers of TR3 peptide from Bcl-B, primary screen, selectivity assay for Bfl-1 inhibitor project, biochemical, fluorescence polarization, FITC-TR3 peptide (AID 748).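 Also: fluorescence polarization from a fluorescein-labelled TR3 peptide binding purified Bcl-B.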

In test [5] the target is T2, Protein Tat (Human immunodeficiency virus type 1 group M subtype B (isolate HXB2)(HIV-1), UniProt P04608).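 Also: tat binding to TAR RNA read out by fluorescence polarization.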
T2 sequence (P04608 whole entry): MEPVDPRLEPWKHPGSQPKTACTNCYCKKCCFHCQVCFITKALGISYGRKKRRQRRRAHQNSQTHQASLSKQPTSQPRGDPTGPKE
It is filed as functional.

The target of test [6] is T3, Glutathione-S-transferase (Schistosoma japonicum, UniProt Q26513).
T3 sequence (Q26513 whole entry): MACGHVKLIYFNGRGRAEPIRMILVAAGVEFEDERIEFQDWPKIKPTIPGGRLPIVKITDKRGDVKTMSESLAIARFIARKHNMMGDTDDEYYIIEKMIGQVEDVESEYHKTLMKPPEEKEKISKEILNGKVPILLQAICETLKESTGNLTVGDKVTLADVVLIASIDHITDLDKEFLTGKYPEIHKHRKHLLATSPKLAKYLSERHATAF
As to the kind of experiment: biotin-GST/anti-GST TR-FRET signal inhibitors, dose response, artefact control for Vif-APOBEC3G degradation inhibitor project, biochemical (AID 1117362). The class given is functional. (In TR-FRET formats the signal depends on donor and acceptor labels being close together.)

The target of test [7] is Estrogen receptor beta (Homo sapiens, UniProt Q92731). As to the kind of experiment: ERβ–SRC-3 coactivator interaction inhibitors, confirmation, orthogonal assay, biochemical, ELISA, streptavidin-HRP readout (AID 1060). A general note: ELISA stands for enzyme-linked immunosorbent assay.
The target of test [8] is Wee1-like protein kinase (Homo sapiens, UniProt P30291). As to the kind of experiment: Dose Response Cell-based Assay for Inhibitors of Wee1 Degradation. [Related pubchem assays: 1410, 1321 ]. It is filed as functional.
Test [9] deals with G2/mitotic-specific cyclin-B1 (Homo sapiens, UniProt P14635). As to the kind of experiment: Counterscreen assay for inhibitors of Wee1 degradation: dose response cell-based assay to identify inhibitors of cyclin B degradation. [Related pubchem assays: 1410, 1321 ]. The class given is functional.
Test [10] addresses Cytochrome P450 3A4 (Homo sapiens, UniProt P08684). The conditions noted are these: Potency.
The target in test [11] is Cytochrome P450 2C9 (Homo sapiens, UniProt P11712). The conditions noted are these: Potency.
Test [12] deals with X-box-binding protein 1 (Homo sapiens, UniProt P17861). It is filed as functional, Cricetulus griseus.
Test [13] has as its system H4. As to the kind of experiment: Luminescence Cell-Based Dose Response HTS to Identify Activators of 5'UTR Stem-Loop Driven Prion Protein mRNA Translation in H4 Neuroglioblastoma Cells. [Related pubchem assays: 1829 (Project Summary), 1814 (Primary HTS)]. It is filed as functional. The conditions noted are these: Homo sapiens.
A short description of test [14]: Luminescence Cell-Based Dose Response HTS to Identify Activators of Luciferase Translation or Activity in H4 […] Cells. [Related pubchem assays: 1829 (Project Summary), 1814 (Primary HTS)]. It is filed as functional.
The nature of test [15]: Luminescence Cell-Based Dose Retest to Confirm Activators of 5'UTR Stem-Loop Driven Alpha-Synuclein mRNA Translation in H4 Neuroglioblastoma Cells. [Related pubchem assays (depositor defined):AID1813, AID1829]. The class given is functional.
A short description of test [16]: Luminescence Cell-Based Dose Response to Identify Activators of 5'UTR Stem-Loop Driven Prion Protein mRNA Translation in H4-C Neuroglioblastoma Cells. [Related pubchem assays: 1829 (Project Summary), 1814 (Primary HTS)]. It is filed as functional.
Test [17] is described as follows: Luminescence Cell-Based Dose Response HTS to Identify Activators of 5'UTR Stem-Loop Driven Prion Protein mRNA Translation in H4-C Neuroglioblastoma Cells. [Related pubchem assays: 1829 (Project Summary), 1814 (Primary HTS)]. It is filed as functional.
A short description of test [18]: Luminescence Cell-Based Dose Confirmation to Identify Activators of 5'UTR Stem-Loop Driven Alpha-Synuclein mRNA Translation in H4 Neuroglioblastoma Cells. [Related pubchem assays: 1829 (Project Summary), 1814 (Primary HTS)]. It is filed as functional.
A short description of test [19]: Luminescence Cell-Based Dose Confirmation HTS to Identify Activators of 5'UTR Stem-Loop Driven Alpha-Synuclein mRNA Translation in H4 Neuroglioblastoma Cells. [Related pubchem assays: 1829 (Project Summary), 1814 (Primary HTS)]. The class given is functional.
Test [20] in a line: Luminescence Cell-Based Dose Response HTS to Identify Activators of Luciferase Translation or Activity in H4-C Neuroglioblastoma Cells. [Related pubchem assays: 1829 (Project Summary), 1814 (Primary HTS)]. The class given is functional.
Test [21] in a line: Luminescence Cell-Based Dose Response to Identify Activators of Luciferase Translation or Activity in H4-C Neuroglioblastoma Cells. [Related pubchem assays: 1829 (Project Summary), 1814 (Primary HTS)]. It is filed as functional.
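For Absolute IC50 (XBP1) in this document: confirmatory dose-response counter-screen serving a CHOP assay.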

Chain of Glucose-6-phosphate 1-dehydrogenase (P11413 whole entry): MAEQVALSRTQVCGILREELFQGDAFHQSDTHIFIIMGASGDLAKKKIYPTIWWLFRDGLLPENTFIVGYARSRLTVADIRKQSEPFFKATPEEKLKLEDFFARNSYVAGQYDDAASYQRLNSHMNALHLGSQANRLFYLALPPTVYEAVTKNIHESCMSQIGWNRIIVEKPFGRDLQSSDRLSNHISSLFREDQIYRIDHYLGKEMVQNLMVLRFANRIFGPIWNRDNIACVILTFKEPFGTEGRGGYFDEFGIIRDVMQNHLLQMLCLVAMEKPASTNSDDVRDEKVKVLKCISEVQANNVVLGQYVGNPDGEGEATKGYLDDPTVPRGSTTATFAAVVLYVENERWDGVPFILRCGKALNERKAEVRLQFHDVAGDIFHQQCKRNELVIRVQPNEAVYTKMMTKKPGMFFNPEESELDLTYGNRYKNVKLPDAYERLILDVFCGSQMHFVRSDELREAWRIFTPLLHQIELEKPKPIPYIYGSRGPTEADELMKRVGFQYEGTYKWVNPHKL
Chain of Cytochrome P450 2C9 (P11712 whole entry): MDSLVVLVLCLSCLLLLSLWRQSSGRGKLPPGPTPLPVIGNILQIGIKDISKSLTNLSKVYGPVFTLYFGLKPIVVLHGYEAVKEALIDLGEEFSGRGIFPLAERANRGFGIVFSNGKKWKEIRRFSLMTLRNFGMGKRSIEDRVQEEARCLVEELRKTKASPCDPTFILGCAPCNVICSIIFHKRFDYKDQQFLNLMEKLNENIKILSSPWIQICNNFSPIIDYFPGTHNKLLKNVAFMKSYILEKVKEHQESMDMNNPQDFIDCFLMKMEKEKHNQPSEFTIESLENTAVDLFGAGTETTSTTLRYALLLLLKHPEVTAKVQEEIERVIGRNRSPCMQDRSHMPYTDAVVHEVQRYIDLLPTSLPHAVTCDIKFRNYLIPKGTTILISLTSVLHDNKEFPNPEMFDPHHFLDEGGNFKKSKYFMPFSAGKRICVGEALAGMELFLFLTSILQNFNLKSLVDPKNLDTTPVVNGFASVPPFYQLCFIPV
Chain of DNA dC->dU-editing enzyme APOBEC-3G (Q9HC16 whole entry): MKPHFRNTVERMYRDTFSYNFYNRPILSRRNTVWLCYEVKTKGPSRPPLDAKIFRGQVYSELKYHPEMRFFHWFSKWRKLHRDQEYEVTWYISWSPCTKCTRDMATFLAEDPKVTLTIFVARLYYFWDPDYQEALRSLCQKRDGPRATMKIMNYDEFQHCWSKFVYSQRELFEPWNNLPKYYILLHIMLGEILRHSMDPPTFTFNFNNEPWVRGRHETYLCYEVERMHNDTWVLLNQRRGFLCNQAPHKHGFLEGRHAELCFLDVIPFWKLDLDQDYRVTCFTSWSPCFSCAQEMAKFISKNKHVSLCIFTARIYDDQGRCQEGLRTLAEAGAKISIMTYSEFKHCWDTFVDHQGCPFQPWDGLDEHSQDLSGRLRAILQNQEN
Chain of Wee1-like protein kinase (P30291 whole entry): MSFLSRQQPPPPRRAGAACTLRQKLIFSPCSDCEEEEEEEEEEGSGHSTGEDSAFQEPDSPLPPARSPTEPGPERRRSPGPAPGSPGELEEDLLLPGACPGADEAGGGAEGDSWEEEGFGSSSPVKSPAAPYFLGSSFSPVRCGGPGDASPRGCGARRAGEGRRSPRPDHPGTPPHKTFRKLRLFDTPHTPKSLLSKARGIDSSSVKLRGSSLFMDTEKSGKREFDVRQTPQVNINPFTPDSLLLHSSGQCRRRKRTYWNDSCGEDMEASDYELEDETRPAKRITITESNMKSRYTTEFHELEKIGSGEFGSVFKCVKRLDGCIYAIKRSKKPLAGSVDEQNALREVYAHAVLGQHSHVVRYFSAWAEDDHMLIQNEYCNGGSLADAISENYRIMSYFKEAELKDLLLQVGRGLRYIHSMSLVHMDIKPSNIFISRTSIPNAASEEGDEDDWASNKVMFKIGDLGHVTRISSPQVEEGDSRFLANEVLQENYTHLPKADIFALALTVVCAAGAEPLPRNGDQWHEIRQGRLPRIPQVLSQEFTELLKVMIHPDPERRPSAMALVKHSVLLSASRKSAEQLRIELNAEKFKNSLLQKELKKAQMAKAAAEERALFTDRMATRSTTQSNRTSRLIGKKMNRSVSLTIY
Chain of Cytochrome P450 3A4 (P08684 whole entry): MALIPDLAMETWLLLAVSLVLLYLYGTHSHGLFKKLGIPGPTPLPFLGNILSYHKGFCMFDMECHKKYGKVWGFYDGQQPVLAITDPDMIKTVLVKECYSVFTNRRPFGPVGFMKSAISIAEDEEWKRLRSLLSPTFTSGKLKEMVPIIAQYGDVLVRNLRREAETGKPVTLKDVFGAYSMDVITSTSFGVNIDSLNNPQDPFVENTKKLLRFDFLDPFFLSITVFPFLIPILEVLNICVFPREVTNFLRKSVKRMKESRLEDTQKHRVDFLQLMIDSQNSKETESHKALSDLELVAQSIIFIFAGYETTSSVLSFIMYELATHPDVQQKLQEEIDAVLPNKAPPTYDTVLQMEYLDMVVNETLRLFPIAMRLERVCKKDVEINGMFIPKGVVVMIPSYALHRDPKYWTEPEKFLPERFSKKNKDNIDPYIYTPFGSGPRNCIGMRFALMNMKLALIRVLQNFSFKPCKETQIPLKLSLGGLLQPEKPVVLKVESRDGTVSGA
Chain of Estrogen receptor beta (Q92731 whole entry): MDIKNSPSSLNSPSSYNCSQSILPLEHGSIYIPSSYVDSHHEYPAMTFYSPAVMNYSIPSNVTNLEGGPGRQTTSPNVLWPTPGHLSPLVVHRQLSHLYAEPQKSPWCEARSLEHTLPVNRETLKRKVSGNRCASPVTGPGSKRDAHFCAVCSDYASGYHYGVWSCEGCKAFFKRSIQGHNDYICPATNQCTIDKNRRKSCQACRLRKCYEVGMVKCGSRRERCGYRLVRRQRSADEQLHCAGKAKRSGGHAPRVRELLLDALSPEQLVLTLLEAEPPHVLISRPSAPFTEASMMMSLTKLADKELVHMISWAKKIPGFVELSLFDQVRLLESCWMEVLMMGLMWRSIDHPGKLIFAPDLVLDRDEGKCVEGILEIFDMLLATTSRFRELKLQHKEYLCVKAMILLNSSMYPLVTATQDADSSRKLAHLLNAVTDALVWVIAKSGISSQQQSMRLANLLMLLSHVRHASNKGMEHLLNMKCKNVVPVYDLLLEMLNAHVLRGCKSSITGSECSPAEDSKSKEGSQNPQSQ
Chain of X-box-binding protein 1 (P17861 whole entry): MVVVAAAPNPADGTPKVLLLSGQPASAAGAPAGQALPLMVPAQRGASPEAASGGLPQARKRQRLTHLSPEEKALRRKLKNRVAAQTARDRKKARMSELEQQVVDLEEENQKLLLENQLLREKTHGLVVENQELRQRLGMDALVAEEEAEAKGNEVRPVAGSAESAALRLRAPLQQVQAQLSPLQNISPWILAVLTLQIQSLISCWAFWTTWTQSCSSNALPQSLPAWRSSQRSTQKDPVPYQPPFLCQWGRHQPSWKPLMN
Chain of G2/mitotic-specific cyclin-B1 (P14635 whole entry): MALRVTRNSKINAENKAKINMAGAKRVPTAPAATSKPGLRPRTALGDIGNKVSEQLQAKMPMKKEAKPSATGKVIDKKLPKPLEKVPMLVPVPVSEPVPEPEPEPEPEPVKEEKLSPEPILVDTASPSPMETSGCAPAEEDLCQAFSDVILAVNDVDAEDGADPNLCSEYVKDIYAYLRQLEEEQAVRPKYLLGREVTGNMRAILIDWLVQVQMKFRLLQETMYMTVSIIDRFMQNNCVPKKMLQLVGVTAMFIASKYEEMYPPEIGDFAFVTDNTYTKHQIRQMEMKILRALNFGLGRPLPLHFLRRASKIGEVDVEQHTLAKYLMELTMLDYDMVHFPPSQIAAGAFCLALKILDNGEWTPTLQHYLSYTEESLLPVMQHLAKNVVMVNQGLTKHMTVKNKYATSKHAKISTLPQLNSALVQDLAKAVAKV

By IC50 is commonly meant the concentration that inhibits the measured activity by half. In the case of `CCC1(C)CC(C(N)=S)CCO1` (configuration not stated), the IC50 in test [1] was 33.2 µM (active); in [2], > 80 µM (inactive).
In general, CC50 refers to the concentration giving 50% cytotoxicity. Turning to `CN(C)c1ccc(NC(=O)Cn2cc3c(n2)CCCC3)cc1`, in [3], the CC50 is 22.2 µM (active). The IC50 in test [4] is 21.8 µM (active); in test [5], > 100 µM (inconclusive); in test [6] it was 22.1 µM (active); in [7], 0.326 µM (not active).
By EC50 is commonly meant the concentration needed to bring the measured effect to its halfway point. Turning to `COc1cc(C2=NOC(C(=O)NCc3cccs3)C2)cc(OC)c1OC` (configuration not stated), the half-maximal effective concentration (EC50) in [8] and in test [9] was > 49.7 µM (not active) throughout.
The AC50 is the concentration giving half of the maximal activity seen. Regarding `CC1CCC2C(=O)N3C(CCC(C)[C@H]3c3cccc(N4CCCC4=O)c3)C(=O)N2C1c1cccc(N2CCCC2=O)c1` (some centres not stated), the AC50 in test [10] and in test [11] was 2.51 µM (inconclusive) each time.
Consider `CCOC(=O)c1c(C)[nH]c(C(=O)COC(=O)c2[nH]c(C)c(C(C)=O)c2C)c1C`, for which the “Absolute IC50 (XBP1)” value in [12] worked out at 10 µM.
For `O=C(COC(=O)Cn1cnc2ccccc21)Nc1cc2c(cc1Cl)C(=O)c1ccccc1C2=O`, the EC50 is 40.4 µM (active) in test [13]; > 120 µM (not active) in test [14]; > 195 µM (inactive) in [15]; > 12 µM (not active) in test [16]; 2.52 µM (active) in test [17]; 1.19 µM (active) in test [18]. Besides, the EC50 in test [19] was < 0.1 µM (active); in test [20] it was 0.609 µM (active); in [21], > 12 µM (not active).
With `CN(C)c1ccc(NC(=O)CN2C(=O)CC(c3ccccc3)=Nc3ccccc32)cc1`, the IC50 in test [4] was > 100 µM (inactive).
